Laboratory results published in PMC8277899, “A novel RyR1-selective inhibitor prevents and rescues sudden death in mouse models of malignant hyperthermia and heat stroke” (Nature Communications, 2021).
Where “and” joins values, the source holds several entries; their conditions need not be identical. Equal entries are not always repeated. Where two headings read alike, the source gives them in different places.

Tested on: soleus muscles from R2509C mice
Assay: Muscle force in vitro, soleus from R2509C mice (caffeine and heat contracture, twitch, tetanus)
Format: cell-based, mouse
Settings: for inhibition at 3 µM: Mus musculus, soleus (WT and R2509C groups)

## CCCCCCCCn1cc(C(=O)O)c(=O)c2cc3c(cc21)OCO3 [Cpd1, 6,7-(methylenedioxy)-1-octyl-4-quinolone-3-carboxylic acid]
At 100 Hz, read-out: inhibition of tetanic contraction force
  inhibition at 3 µM: 35%
read-out: inhibition of twitch contraction force
  inhibition at 3 µM: 72%
R2509C soleus, 3 μM Cpd1, caffeine 20 mM
  increase in basal stress in response to caffeine: 0.5836 and 0.5932 and 0.4496 and 0.3389 and 0.4718
R2509C soleus, pretreatment 3 µM, 20 mM caffeine
  effect on caffeine-induced contracture tension: decreased
R2509C soleus, pretreatment 3 µM, 42 °C
  effect on heat-induced contracture: significantly reduced
